Peptide text beside a SMILES is read from it.
Molecular target: T1, FPR1 (Homo sapiens, UniProt P21462)
T1 sequence (P21462 1-350): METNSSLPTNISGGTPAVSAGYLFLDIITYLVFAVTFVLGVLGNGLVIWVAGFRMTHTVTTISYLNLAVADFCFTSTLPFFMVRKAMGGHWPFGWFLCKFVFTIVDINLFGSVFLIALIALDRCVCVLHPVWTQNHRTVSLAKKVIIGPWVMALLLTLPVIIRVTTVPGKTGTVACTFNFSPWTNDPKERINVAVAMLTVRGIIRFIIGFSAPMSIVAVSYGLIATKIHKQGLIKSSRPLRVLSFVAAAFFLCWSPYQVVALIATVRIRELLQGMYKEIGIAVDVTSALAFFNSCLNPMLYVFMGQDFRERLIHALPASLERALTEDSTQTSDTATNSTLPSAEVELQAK
Assay: Agonist-dependent FPR1 internalization at 37°C, fluorescence microscopy, RBL-2H3/ETFR cells
Type: cell-based
Parameters: expressed in transfected cells
Settings: 100 nM peptide 30 min at 37°C, then 10 nM FITC-fMLF 30 min at 37°C
Method: We have previously documented that SRSRY competes with the bacterial-derived N-formyl-methionyl-leucyl-phenylalanine peptide (fMLF) for binding to FPR type 1 (FPR1) and that both SRSRY and fMLF promote cell migration by triggering FPR1 internalization. […] Quantification of cell-associated fluorescence was assessed by reading cell lysates with a fluorescence plate reader. RBL-2H3 cells lack FPR1, thus they display very low uptake that was not saturable with unlabeled fMLF (Fig 2A). […] To evaluate the effect of [SRSRY] on agonist-dependent FPR1 internalization, binding experiments were performed at 37°C. […] Thus, we assessed whether [SRSRY] elicits effects on fMLF-directed cell migration. RBL-2H3/ETFR cell migration toward 10 nM fMLF was monitored in real-time for 4 hours as Cell Index changes due to the adhesion of migrating cells to microelectrodes using the xCELLigence RTCA technology as previously described. […]
Fig 2 Both linear and cyclic SRSRY peptides bind to FPR1. […] Fluorimetric measurement of cell-associated fluorescence was assed using 485 nm excitation and 535 nm emission filters. Data are expressed as a percentage of the fluorescence associated to RBL-2H3 cells exposed to FITC-fMLF alone (CTL = 100%) and represent a mean ± SD from triplicates. *Statistical significance (t-test) against None with p<0.001. […] Cell migration of RBL-2H3/ETFR cells monitored by the xCELLigence system. […]

SMILES | agonist-dependent FPR1 internalization in RBL-2H3/ETFR cells
N=C(N)NCCC[C@H](NC(=O)[C@H](CO)NC(=O)[C@H](CCCNC(=N)N)NC(=O)[C@@H](N)CO)C(=O)N[C@@H](Cc1ccc(O)cc1)C(N)=O [SRSRY, H-Ser-Arg-Ser-Arg-Tyr-NH2] (H-SRSRY-NH2) | prevented
N=C(N)NCCC[C@@H]1NC(=O)[C@H](CO)NC(=O)[C@H](Cc2ccc(O)cc2)NC(=O)[C@H](CCCNC(=N)N)NC(=O)[C@H](CO)NC1=O [[SRSRY], [Ser-Arg-Ser-Arg-Tyr]] (cyclo(RSRYS)) | prevented agonist-dependent FPR1 internalization
